Consider two compounds from ChEMBL document CHEMBL3991601, “The target landscape of clinical kinase drugs” (Science, 2017).

The term Kd denotes the constant that tells how readily two partners part at equilibrium.

In assay [1] the target is Tyrosine-protein kinase ABL1 (Homo sapiens, UniProt P00519).
For assay [2], the target named is RAC-alpha serine/threonine-protein kinase (Homo sapiens, UniProt P31749).
Assay [3] has as its target RAC-gamma serine/threonine-protein kinase (Homo sapiens, UniProt Q9Y243).
The target in assay [4] is BMP-2-inducible protein kinase (Homo sapiens, UniProt Q9NSY1).
Assay [5] has as its target Calcium/calmodulin-dependent protein kinase type II subunit delta (Homo sapiens, UniProt Q13557).
For assay [6], the target named is Cyclin-dependent kinase 5 (Homo sapiens, UniProt Q00535).
Another assay deals with Ephrin type-A receptor 5 (Homo sapiens, UniProt P54756).
In the next assay the target is Insulin receptor (Homo sapiens, UniProt P06213).
Assay [7] deals with Dual specificity mitogen-activated protein kinase kinase 2 (Homo sapiens, UniProt P36507).
The target of assay [8] is Mitogen-activated protein kinase kinase kinase 1 (Homo sapiens, UniProt Q13233).
For assay [9], the target named is Myosin light chain kinase, smooth muscle (Homo sapiens, UniProt Q15746).
Assay [10] has as its target NADH dehydrogenase [ubiquinone] 1 alpha subcomplex subunit 13 (Homo sapiens, UniProt Q9P0J0).
Assay [11] has as its target T1, Exosome RNA helicase MTR4 (Homo sapiens, UniProt P42285).
T1 sequence (P42285 whole entry): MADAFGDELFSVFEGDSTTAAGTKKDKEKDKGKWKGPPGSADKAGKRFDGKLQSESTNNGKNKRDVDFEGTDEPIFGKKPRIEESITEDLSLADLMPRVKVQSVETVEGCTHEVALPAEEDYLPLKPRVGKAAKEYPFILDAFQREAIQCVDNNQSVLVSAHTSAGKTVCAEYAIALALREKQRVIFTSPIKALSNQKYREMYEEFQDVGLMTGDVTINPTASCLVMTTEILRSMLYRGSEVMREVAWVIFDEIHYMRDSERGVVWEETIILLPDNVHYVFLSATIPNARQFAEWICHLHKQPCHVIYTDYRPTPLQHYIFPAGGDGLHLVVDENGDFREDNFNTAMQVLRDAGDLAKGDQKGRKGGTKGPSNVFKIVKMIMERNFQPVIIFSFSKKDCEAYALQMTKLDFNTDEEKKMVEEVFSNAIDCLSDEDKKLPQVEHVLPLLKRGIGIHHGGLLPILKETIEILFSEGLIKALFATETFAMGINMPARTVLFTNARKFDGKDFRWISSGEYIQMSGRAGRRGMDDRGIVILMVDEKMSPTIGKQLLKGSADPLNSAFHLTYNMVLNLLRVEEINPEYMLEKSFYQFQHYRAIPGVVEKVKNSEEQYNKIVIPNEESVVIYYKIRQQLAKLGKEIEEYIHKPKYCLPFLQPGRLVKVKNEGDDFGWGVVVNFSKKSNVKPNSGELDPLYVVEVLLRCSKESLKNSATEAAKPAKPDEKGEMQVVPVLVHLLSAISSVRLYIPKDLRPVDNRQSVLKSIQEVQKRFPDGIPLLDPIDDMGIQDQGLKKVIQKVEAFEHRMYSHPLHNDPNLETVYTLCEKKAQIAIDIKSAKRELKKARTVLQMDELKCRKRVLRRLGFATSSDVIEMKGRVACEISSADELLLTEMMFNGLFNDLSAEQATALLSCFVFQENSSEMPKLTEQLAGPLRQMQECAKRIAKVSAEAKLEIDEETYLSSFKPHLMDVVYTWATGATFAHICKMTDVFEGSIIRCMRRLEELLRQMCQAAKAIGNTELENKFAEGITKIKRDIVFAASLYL

For assay [12], the target named is STE20-like serine/threonine-protein kinase (Homo sapiens, UniProt Q9H2G2).

Activity calls are given as the source filed them. Cut-off read from the data, not from the text of the source, for most assays here: actives have a measured Kd and inactives only a lower limit.
Note: in the data inactive means no Kd found up to 30 µM.

Chain of Ephrin type-A receptor 5 (P54756 whole entry): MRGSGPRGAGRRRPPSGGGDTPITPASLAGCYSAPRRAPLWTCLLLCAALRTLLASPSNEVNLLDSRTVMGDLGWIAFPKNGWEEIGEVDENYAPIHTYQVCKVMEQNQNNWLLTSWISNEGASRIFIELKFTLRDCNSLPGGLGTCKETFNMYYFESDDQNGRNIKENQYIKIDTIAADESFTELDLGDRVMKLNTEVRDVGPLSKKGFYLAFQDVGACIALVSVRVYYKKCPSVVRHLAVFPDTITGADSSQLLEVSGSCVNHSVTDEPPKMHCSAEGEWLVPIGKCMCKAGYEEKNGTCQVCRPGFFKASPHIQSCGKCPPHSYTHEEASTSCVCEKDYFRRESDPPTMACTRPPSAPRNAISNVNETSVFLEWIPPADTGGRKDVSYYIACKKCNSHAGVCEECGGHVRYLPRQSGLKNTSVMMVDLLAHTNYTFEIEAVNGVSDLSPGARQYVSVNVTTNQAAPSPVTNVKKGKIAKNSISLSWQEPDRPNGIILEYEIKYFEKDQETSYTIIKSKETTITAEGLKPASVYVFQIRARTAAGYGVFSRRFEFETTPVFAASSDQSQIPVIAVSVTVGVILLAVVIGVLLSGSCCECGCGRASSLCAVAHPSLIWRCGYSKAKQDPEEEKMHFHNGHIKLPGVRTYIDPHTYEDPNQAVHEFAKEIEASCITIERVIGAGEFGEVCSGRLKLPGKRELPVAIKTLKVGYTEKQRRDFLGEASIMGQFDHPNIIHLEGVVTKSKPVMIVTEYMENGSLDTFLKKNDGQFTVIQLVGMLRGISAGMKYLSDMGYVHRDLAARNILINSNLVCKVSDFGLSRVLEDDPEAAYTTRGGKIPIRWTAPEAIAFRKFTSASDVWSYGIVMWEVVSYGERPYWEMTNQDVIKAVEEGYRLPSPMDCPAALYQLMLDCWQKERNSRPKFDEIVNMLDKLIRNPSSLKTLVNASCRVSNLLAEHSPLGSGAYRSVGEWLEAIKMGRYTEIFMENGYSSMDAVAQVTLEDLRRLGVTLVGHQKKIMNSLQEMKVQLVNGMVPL
Chain of Insulin receptor (P06213 28-758 limits assumed): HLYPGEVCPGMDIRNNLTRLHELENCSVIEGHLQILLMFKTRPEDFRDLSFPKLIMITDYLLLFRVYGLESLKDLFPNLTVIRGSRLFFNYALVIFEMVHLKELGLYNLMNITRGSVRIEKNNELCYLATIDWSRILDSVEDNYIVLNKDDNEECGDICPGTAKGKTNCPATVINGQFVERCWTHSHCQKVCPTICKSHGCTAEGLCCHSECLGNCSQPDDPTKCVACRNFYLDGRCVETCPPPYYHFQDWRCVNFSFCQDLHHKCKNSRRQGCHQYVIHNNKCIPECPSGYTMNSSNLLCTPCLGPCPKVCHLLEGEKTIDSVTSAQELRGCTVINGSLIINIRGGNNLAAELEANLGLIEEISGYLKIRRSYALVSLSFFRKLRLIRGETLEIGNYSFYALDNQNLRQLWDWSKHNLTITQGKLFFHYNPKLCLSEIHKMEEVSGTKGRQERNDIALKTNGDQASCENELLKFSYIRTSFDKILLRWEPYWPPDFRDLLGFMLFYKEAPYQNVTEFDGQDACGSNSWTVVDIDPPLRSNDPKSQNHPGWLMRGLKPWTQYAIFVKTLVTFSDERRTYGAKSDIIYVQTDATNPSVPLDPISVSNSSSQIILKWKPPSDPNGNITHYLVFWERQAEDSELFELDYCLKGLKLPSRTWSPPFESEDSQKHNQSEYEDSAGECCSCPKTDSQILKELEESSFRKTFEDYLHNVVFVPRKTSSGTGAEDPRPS
Chain of Insulin receptor (P06213 763-1382 limits assumed): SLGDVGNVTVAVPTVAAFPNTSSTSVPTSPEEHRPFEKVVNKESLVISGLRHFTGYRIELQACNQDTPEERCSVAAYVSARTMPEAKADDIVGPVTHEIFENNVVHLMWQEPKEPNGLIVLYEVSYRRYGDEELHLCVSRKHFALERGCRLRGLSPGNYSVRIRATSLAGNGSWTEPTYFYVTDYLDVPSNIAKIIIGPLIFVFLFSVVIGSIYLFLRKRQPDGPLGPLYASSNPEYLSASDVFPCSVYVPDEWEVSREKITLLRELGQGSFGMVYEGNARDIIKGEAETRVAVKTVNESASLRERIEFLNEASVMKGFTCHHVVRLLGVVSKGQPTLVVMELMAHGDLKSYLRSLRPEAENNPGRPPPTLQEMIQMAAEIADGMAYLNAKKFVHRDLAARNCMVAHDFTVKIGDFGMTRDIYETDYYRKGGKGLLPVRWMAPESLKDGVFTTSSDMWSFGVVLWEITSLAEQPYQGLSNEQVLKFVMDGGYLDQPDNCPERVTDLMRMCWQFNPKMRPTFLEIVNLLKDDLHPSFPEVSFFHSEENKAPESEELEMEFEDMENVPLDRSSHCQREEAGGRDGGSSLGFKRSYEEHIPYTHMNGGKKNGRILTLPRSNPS
Chain of Calcium/calmodulin-dependent protein kinase type II subunit delta (Q13557 whole entry): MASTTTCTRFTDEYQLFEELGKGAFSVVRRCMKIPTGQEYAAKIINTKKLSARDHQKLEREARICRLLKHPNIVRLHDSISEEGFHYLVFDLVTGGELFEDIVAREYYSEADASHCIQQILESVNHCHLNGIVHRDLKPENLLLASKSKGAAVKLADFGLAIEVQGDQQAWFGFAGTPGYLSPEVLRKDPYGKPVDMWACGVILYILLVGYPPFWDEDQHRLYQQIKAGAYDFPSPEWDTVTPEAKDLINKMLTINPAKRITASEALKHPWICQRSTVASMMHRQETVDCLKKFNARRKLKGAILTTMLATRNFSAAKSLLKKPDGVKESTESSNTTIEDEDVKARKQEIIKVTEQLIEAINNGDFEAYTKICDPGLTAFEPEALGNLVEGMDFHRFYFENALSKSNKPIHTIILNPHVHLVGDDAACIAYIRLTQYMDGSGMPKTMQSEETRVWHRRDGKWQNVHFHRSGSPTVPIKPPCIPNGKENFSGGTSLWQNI
Chain of BMP-2-inducible protein kinase (Q9NSY1 whole entry): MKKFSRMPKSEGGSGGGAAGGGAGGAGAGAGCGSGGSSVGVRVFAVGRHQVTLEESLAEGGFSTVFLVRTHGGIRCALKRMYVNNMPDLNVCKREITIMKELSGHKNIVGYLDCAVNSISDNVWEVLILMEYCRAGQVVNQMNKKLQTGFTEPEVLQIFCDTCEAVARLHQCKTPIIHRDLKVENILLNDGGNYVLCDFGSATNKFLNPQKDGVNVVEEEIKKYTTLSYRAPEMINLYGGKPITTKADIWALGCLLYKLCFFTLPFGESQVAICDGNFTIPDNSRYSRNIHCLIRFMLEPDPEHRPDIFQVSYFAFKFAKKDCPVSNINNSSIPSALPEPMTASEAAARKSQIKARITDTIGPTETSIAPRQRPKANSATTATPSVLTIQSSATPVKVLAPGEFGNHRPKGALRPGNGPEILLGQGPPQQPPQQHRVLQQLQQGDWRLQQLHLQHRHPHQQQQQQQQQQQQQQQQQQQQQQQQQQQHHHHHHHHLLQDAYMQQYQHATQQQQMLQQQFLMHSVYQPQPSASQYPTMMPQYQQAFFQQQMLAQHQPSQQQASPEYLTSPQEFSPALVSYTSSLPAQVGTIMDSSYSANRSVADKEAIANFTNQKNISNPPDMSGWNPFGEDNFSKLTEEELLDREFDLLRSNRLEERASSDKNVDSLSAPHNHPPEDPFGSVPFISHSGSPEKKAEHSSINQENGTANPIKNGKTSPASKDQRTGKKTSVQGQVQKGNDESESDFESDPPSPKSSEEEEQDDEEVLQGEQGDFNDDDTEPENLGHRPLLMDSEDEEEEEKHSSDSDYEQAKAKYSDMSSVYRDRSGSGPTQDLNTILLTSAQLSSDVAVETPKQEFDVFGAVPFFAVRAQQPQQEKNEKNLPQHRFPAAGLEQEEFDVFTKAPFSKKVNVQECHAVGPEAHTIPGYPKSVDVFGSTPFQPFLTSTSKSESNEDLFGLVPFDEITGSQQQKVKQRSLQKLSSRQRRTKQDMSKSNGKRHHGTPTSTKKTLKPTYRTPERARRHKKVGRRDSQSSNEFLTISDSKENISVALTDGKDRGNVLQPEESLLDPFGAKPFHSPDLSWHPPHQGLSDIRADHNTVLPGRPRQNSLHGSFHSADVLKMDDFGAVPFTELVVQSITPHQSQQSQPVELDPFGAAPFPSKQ
Chain of RAC-alpha serine/threonine-protein kinase (P31749 whole entry): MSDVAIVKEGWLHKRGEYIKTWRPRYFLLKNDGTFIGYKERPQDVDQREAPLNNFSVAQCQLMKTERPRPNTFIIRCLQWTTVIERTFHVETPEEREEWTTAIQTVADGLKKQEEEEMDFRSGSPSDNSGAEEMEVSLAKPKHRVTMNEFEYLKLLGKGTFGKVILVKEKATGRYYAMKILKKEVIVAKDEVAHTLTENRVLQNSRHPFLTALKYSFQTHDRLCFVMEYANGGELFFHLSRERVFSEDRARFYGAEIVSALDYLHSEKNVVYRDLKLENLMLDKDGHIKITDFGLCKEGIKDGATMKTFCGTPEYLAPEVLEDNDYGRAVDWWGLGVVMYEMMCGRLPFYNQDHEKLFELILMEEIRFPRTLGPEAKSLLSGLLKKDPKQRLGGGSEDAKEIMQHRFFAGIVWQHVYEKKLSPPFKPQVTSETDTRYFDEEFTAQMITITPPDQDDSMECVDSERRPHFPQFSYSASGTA
Chain of RAC-gamma serine/threonine-protein kinase (Q9Y243 whole entry): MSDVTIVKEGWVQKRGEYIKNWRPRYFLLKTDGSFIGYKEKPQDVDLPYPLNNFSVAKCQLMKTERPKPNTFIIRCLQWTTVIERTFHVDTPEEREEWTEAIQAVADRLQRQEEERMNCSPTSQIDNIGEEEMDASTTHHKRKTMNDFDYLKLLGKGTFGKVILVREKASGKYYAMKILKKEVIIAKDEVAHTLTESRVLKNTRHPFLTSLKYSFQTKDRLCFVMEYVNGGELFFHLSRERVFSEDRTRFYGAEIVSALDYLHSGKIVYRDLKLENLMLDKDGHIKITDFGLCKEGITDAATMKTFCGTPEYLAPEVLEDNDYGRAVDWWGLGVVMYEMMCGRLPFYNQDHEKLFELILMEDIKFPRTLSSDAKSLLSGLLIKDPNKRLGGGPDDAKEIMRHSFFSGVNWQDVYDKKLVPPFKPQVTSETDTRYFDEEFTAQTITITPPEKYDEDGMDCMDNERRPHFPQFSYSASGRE

For the compound `O=C(c1ccc(F)c(F)c1Nc1ccc(I)cc1F)N1CC(O)([C@@H]2CCCCN2)C1` [COBIMETINIB], the Kd in [1], in assay [2], in [3], in assay [4], in [5] and in [6] was > 30 µM (inactive) in each case. In addition, the Kd on Ephrin type-A receptor 5 is > 30 µM (inactive); at Insulin receptor, > 30 µM (inactive); in assay [7], 0.022 µM (active); in [8], > 30 µM (inactive); in assay [9], > 30 µM (inactive); in [10], > 30 µM (inactive). Besides, the Kd in assay [11] and in [12] was > 30 µM (inactive) throughout.
For the compound `Cc1cc(-c2cc(O)ccc2Cl)cc2nnc(Nc3ccc(OCCN4CCCC4)cc3)nc12`, the Kd in assay [1] was 0.002 µM (active); in assay [2], > 30 µM (inactive); in assay [3] it was > 30 µM (inactive); in [4] it was > 30 µM (inactive); in assay [5] it was > 30 µM (inactive); in assay [6] it was > 30 µM (inactive). Also, the Kd at Ephrin type-A receptor 5 was 0.0004 µM (active); at Insulin receptor, > 30 µM (inactive); in [7] it was > 30 µM (inactive); in [8], > 30 µM (inactive); in assay [9], > 30 µM (inactive); in assay [10], > 30 µM (inactive). Further, the Kd in assay [11] and in [12] was > 30 µM (inactive) in each case.
